Results from ChEMBL document CHEMBL1201862, “PubChem BioAssay data set” (2004).
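In this assay, cells in 96-well plates receive the compound at five concentrations for 48 hours. Endpoints are linearly interpolated between the surrounding concentrations. GI50: concentration for 50% inhibition of growth.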 Calls of active or inactive are those of the source. Rule as the data show it: active = GI50 up to about 1.1 µM and inactive = higher.

Tests used:
Test in all cases: NCI anticancer screen, dose series, 48 h
A549 = test system: A549
DLD-1 = test system: DLD-1
DMS-114 = test system: DMS-114
DMS-273 = test system: DMS-273
HOP-92 = test system: HOP-92
KM-20L2 = test system: KM-20L2
OVCAR-8 = test system: OVCAR-8
SK-MEL-28 = test system: SK-MEL-28
A498 = test system: A498
DU-145 = test system: DU-145
MDA-MB-435 = test system: MDA-MB-435
MDA-N = test system: MDA-N
NCI-H23 = test system: NCI-H23
PC-3 = test system: PC-3
SK-MEL-5 = test system: SK-MEL-5
T47D = test system: T47D
HOP-18 = test system: HOP-18
XF498 = test system: XF498
SNB-78 = test system: SNB-78
MDA-MB-231 = test system: MDA-MB-231

| SMILES | GI50 (A549) | GI50 (DLD-1) | GI50 (DMS-114) | GI50 (DMS-273) | GI50 (HOP-92) | GI50 (KM-20L2) | GI50 (OVCAR-8) | GI50 (SK-MEL-28) | GI50 (A498) | GI50 (DU-145) | GI50 (MDA-MB-435) | GI50 (MDA-N) | GI50 (NCI-H23) | GI50 (PC-3) | GI50 (SK-MEL-5) | GI50 (T47D) | GI50 (HOP-18) | GI50 (XF498) | GI50 (SNB-78) | GI50 (MDA-MB-231) |
| --- | --- | --- | --- | --- | --- | --- | --- | --- | --- | --- | --- | --- | --- | --- | --- | --- | --- | --- | --- | --- |
| COc1ccc(-c2c3ccccc3c(-c3ccc(OCCCCCBr)cc3)c3ccccc23)cc1 | > 100 µM (inactive) | > 100 µM (inactive) | > 100 µM (inactive) | > 100 µM (inactive) | > 100 µM (inactive) | > 100 µM (inactive) | > 100 µM (inactive) | > 100 µM (inactive) |  |  |  |  |  |  |  |  |  |  |  |  |
| O=C(N/N=C\c1cccc2ccccc12)Nc1ccccc1 |  |  |  |  | > 100 µM (inactive) |  | > 100 µM (inactive) | > 100 µM (inactive) | > 100 µM (inactive) | > 100 µM (inactive) | > 100 µM (inactive) | > 100 µM (inactive) | > 100 µM (inactive) | > 100 µM (inactive) | > 100 µM (inactive) | > 100 µM (inactive) |  |  |  |  |
| Cc1c2cc[n+](C)cc2c(C)c2c1[nH]c1ccccc12 | 0.225 µM (active) | 1.68 µM (inactive) | 0.275 µM (active) | 1.5 µM (inactive) | 1.33 µM (inactive) |  | 0.399 µM (active) | 1.34 µM (inactive) | 4.26 µM (inactive) |  |  |  | 0.714 µM (active) |  | 1.35 µM (inactive) |  | 2.82 µM (inactive) | 0.548 µM (active) |  |  |
| CCCCCCCCCOCC(COP(=O)([O-])OCC[N+](C)(C)C)OC (centres undefined) | > 100 µM (inactive) | > 100 µM (inactive) | > 100 µM (inactive) | > 100 µM (inactive) | > 100 µM (inactive) | > 100 µM (inactive) | > 100 µM (inactive) | > 100 µM (inactive) | > 100 µM (inactive) |  |  |  | > 100 µM (inactive) |  | > 100 µM (inactive) |  | > 100 µM (inactive) | > 100 µM (inactive) | > 100 µM (inactive) |  |
| CC(C)NC(=O)OCc1c2c(n(C)c1COC(=O)NC(C)C)-c1ccccc1CC2 | 23.7 µM (inactive) | 11.9 µM (inactive) | 5.43 µM (inactive) | 13.9 µM (inactive) | 6.73 µM (inactive) | 14 µM (inactive) | 12 µM (inactive) | 13 µM (inactive) | 23.4 µM (inactive) |  |  |  | 6.71 µM (inactive) |  | 14.4 µM (inactive) |  | 2.28 µM (inactive) | 13.1 µM (inactive) | 11.4 µM (inactive) |  |
| O=[PH](O)c1cccs1 | > 100 µM (inactive) | > 100 µM (inactive) | > 100 µM (inactive) | > 100 µM (inactive) | 57 µM (inactive) | > 100 µM (inactive) | > 100 µM (inactive) | > 100 µM (inactive) | > 100 µM (inactive) |  |  |  | > 100 µM (inactive) |  | > 100 µM (inactive) |  | > 100 µM (inactive) | > 100 µM (inactive) |  |  |
| O=C1N[C@@H]2C(=C[C@H](O)[C@@H](O)[C@H]2O)c2cc3c(c(O)c21)OCO3 [NARCICLASINE] | 0.045 µM (active) | 0.045 µM (active) |  | 0.045 µM (active) | 0.045 µM (active) | 0.045 µM (active) | 0.045 µM (active) | 0.045 µM (active) | 0.045 µM (active) |  |  |  | 0.045 µM (active) |  | 0.045 µM (active) |  | 0.0535 µM (active) | 0.045 µM (active) | 0.045 µM (active) |  |
| NS(=O)(=O)C1CCCCC1C(=O)NNC(=O)C(=O)Nc1nnc(S)[nH]1 (centres undefined) | > 100 µM (inactive) | > 100 µM (inactive) | > 100 µM (inactive) | > 100 µM (inactive) | > 100 µM (inactive) | > 100 µM (inactive) | > 100 µM (inactive) | > 100 µM (inactive) | > 100 µM (inactive) |  |  |  | > 100 µM (inactive) |  | > 100 µM (inactive) |  |  | > 100 µM (inactive) | > 100 µM (inactive) |  |
| CO/N=C1/c2sccc2[C@H](NC(=O)C(F)(F)F)[C@@H]1O | > 100 µM (inactive) |  |  |  | > 100 µM (inactive) |  | > 100 µM (inactive) | > 100 µM (inactive) | > 100 µM (inactive) | > 100 µM (inactive) | > 100 µM (inactive) | > 100 µM (inactive) | > 100 µM (inactive) | > 100 µM (inactive) | > 100 µM (inactive) | > 100 µM (inactive) |  |  |  | > 100 µM (inactive) |
| CCCOC1OC(CS(=O)(=O)O)C(OC(C)=O)C(OC(C)=O)C1OC(C)=O (centres undefined) |  |  |  |  | > 100 µM (inactive) |  | > 100 µM (inactive) | > 100 µM (inactive) | > 100 µM (inactive) | > 100 µM (inactive) | > 100 µM (inactive) | > 100 µM (inactive) | > 100 µM (inactive) | > 100 µM (inactive) | > 100 µM (inactive) | > 100 µM (inactive) |  |  |  | > 100 µM (inactive) |
| COC(=O)Cc1c(-c2c(CC(=O)OC)c3ccccc3n2C2OC(COC(C)=O)C(OC(C)=O)C(OC(C)=O)C2OC(C)=O)[nH]c2ccccc12 (centres undefined) | > 100 µM (inactive) |  |  |  | > 100 µM (inactive) |  |  | > 100 µM (inactive) | 52.4 µM (inactive) | > 100 µM (inactive) | > 100 µM (inactive) | > 100 µM (inactive) | > 100 µM (inactive) | > 100 µM (inactive) | > 100 µM (inactive) |  |  |  |  | 43.2 µM (inactive) |
| CC(=O)CC(=O)CCC(=O)O [SUCCINYLACETONE] | > 100 µM (inactive) | > 100 µM (inactive) | > 100 µM (inactive) | > 100 µM (inactive) | < 0.01 µM (active) | > 100 µM (inactive) | > 100 µM (inactive) | > 100 µM (inactive) |  |  |  |  | > 100 µM (inactive) |  |  |  | > 100 µM (inactive) | > 100 µM (inactive) | > 100 µM (inactive) |  |
| Oc1ccc(/C=C/c2cc(O)cc(O)c2)cc1 [RESVERATROL] | 51.6 µM (inactive) |  |  |  | > 100 µM (inactive) |  | 48.8 µM (inactive) | > 100 µM (inactive) | 24.3 µM (inactive) | 12.1 µM (inactive) | 70.1 µM (inactive) | 50.7 µM (inactive) | 46 µM (inactive) | 42.4 µM (inactive) |  | 8.65 µM (inactive) |  |  |  | > 100 µM (inactive) |
| Cc1ccc2c(=O)c3ccccc3sc2c1 | > 100 µM (inactive) | > 100 µM (inactive) |  | > 100 µM (inactive) |  | > 100 µM (inactive) | > 100 µM (inactive) | > 100 µM (inactive) |  |  |  |  | > 100 µM (inactive) |  | > 100 µM (inactive) |  | 6.19 µM (inactive) |  |  |  |
| CCCCCCc1ccc(O)cc1O [HEXYLRESORCINOL] | 40.6 µM (inactive) | 72.6 µM (inactive) |  | > 72.6 µM (inactive) | 30.6 µM (inactive) | > 100 µM (inactive) | > 69 µM (inactive) | > 71.9 µM (inactive) | > 100 µM (inactive) |  |  |  | 47.3 µM (inactive) |  | 31.8 µM (inactive) |  | 28.2 µM (inactive) | > 65.3 µM (inactive) | > 72.8 µM (inactive) |  |
| CCCCCCCCCCCCCCCC(=O)OC1C(O)C(CO)OC(OC)C1NC(=O)N(CCCl)N=O (centres undefined) | 10.3 µM (inactive) | 16.2 µM (inactive) | 12.1 µM (inactive) | 13.1 µM (inactive) |  | 17.9 µM (inactive) | 17.8 µM (inactive) | 14.2 µM (inactive) |  |  |  |  | 7.94 µM (inactive) |  | 13.2 µM (inactive) |  | 15.8 µM (inactive) | 14.6 µM (inactive) | 19.5 µM (inactive) |  |
| COc1ccc(N2CN(C)CSC2=S)cc1 | > 100 µM (inactive) |  |  |  |  |  | > 100 µM (inactive) | > 100 µM (inactive) | > 100 µM (inactive) | > 100 µM (inactive) | 43.3 µM (inactive) |  | > 100 µM (inactive) | > 100 µM (inactive) | > 100 µM (inactive) | 54 µM (inactive) |  |  |  | > 100 µM (inactive) |
| Cc1ccc(S(=O)(=O)NCCCSCCSCCCN)cc1 | > 100 µM (inactive) |  |  |  | > 100 µM (inactive) |  | > 100 µM (inactive) | > 100 µM (inactive) | > 100 µM (inactive) | > 100 µM (inactive) | > 100 µM (inactive) | > 100 µM (inactive) | > 100 µM (inactive) | > 100 µM (inactive) | > 100 µM (inactive) | > 100 µM (inactive) |  |  |  | > 100 µM (inactive) |
| C=CCn1c(=O)c(Br)nn(CCOCP(=O)(OCC)OCC)c1=O | > 100 µM (inactive) |  |  |  | > 100 µM (inactive) |  | > 100 µM (inactive) | > 100 µM (inactive) | > 100 µM (inactive) | > 100 µM (inactive) | > 100 µM (inactive) | > 100 µM (inactive) | > 100 µM (inactive) | > 100 µM (inactive) | 61.2 µM (inactive) | > 100 µM (inactive) |  |  |  | > 100 µM (inactive) |
